Values of other authors, collected in paper PMC9160825, “Structural and Functional Characterization of a Novel Scorpion Toxin that Inhibits NaV1.8 via Interactions With the DI Voltage Sensor and DII Pore Module” (Frontiers in Pharmacology, 2022).

Tests used:
[1] = tested on: sodium channel DI voltage sensor; parameters: method as in Xiao et al., 2014; conditions: ref Xiao et al., 2014
[2] = tested on: DRG nociceptive sensory neurons
Source text: In addition to modifying activation and fast inactivation gating, NaTx36 modifies slow inactivation gating in OtNaV1.8 by substantially shifting the voltage dependence to hyperpolarized membrane potentials (Figure 5B). Slow inactivation differs from fast inactivation in voltage- and time-dependent properties. While fast inactivation inhibits NaV excitability within milliseconds of action potential firing, slow inactivation develops in response to prolonged membrane depolarization (tens of seconds) or a series of action potentials, inhibiting NaV excitability over longer timescales (seconds to ...

[3] = tested on: house mouse NaV1.8; conditions: ref Zhang and Bean, 2021

Molecule: ProTx-II: spider toxin
- effect on gating pore currents via DI voltage sensor [1]: modify the voltage dependence of gating pore currents

Molecule: COc1cc(CNC(=O)CCCC/C=C/C(C)C)ccc1O [capsaicin]
- NaV1.8 TTX-R Na+ currents and action potential firing ([2]; sustained excitation of DRG membranes, ref Blair and Bean, 2003): caused a decrease in NaV1.8 TTX-R Na^+ currents and action potential firing

Molecule: C=C(C)[C@@H]1CCC(C)=C[C@H]1c1c(O)cc(CCCCC)cc1O [CBD, cannabidiol]
- repetitive action potential firing and DRG neuronal excitability ([2]; ref Zhang and Bean, 2021): reduces repetitive action potential firing and DRG neuronal excitability
- inhibition of house mouse NaV1.8 [3]: inhibited house mouse NaV1.8 in a state-dependent manner
